Source: the supplement of paper PMC13380429

Tests used:
[1] = test system: A549-ACE2 infected with SARS-CoV-2; experiment: morphology score (similarity to uninfected cells); higher = more like uninfected cells; conditions: 24 h
Calu-3 [2] = experiment: drug sensitivity score (DSS) for viability; higher = more toxic; extreme values may be limits of the assay; conditions: 72 h
U2OS [3] = experiment: as above; conditions: 72 h
HepG2 [4] = experiment: as above; conditions: 72 h
Vero E6 [5] = experiment: as above; conditions: 72 h
Caco-2 [6] = experiment: as above; conditions: 72 h
[7] = test system: A549-ACE2 infected with SARS-CoV-2; experiment: SARS-CoV-2 infection rate relative to DMSO; higher = more infection; conditions: 24 h
Calu-3 [8] = experiment: cell viability relative to DMSO; higher = less toxic; conditions: 72 h
U2OS [9] = experiment: as above; conditions: 72 h
HepG2 [10] = experiment: as above; conditions: 72 h
Vero E6 [11] = experiment: as above; conditions: 72 h
Caco-2 [12] = experiment: as above; conditions: 72 h
A549-ACE2 = experiment: drug-induced phospholipidosis relative to tamoxifen; higher = more phospholipidosis
Calu-3 [13] = experiment: relative viability EC50 (midpoint between 100% and the lowest measured viability); higher = less toxic; conditions: 72 h
U2OS [14] = experiment: as above; conditions: 72 h
HepG2 [15] = experiment: as above; conditions: 72 h
Caco-2 [16] = experiment: as above; conditions: 72 h
[17] = test system: A549-ACE2 infected with SARS-CoV-2; experiment: cell count relative to DMSO; higher = less toxic; conditions: 24 h
Vero E6 [18] = experiment: relative viability EC50 (midpoint between 100% and the lowest measured viability); higher = less toxic; conditions: 72 h

## CNC(=O)c1cc(Oc2ccc(NC(=O)Nc3ccc(Cl)c(C(F)(F)F)c3)cc2)ccn1 [sorafenib]
[1]; 0.1 µM
  morphology score: -0.27
[1]; 0.3 µM
  morphology score: -0.32
[1]; 1 µM
  morphology score: -0.4
[1]; 3 µM
  morphology score: -0.27
Calu-3 [2]
  drug sensitivity score: 0.2
U2OS [3]
  drug sensitivity score: 2.6
HepG2 [4]
  drug sensitivity score: 7.9
Vero E6 [5]
  drug sensitivity score: 1.7
Caco-2 [6]
  drug sensitivity score: 2.9
[7]; 0.1 µM
  SARS-CoV-2 infection rate: 110%
[7]; 0.3 µM
  SARS-CoV-2 infection rate: 103%
[7]; 1 µM
  SARS-CoV-2 infection rate: 116%
[7]; 3 µM
  SARS-CoV-2 infection rate: 103%
Calu-3 [8]; 1 nM
  cell viability: 107%
Calu-3 [8]; 10 nM
  cell viability: 104%
Calu-3 [8]; 100 nM
  cell viability: 109%
Calu-3 [8]; 1000 nM
  cell viability: 108%
Calu-3 [8]; 10000 nM
  cell viability: 82.2%
U2OS [9]; 1 nM
  cell viability: 98.7%
U2OS [9]; 10 nM
  cell viability: 99.1%
U2OS [9]; 100 nM
  cell viability: 103%
U2OS [9]; 1000 nM
  cell viability: 111%
U2OS [9]; 10000 nM
  cell viability: 39.7%
HepG2 [10]; 1 nM
  cell viability: 105%
HepG2 [10]; 10 nM
  cell viability: 113%
HepG2 [10]; 100 nM
  cell viability: 99.2%
HepG2 [10]; 1000 nM
  cell viability: 80.5%
HepG2 [10]; 10000 nM
  cell viability: 12.7%
Vero E6 [11]; 1 nM
  cell viability: 97.4%
Vero E6 [11]; 10 nM
  cell viability: 98.9%
Vero E6 [11]; 100 nM
  cell viability: 104%
Vero E6 [11]; 1000 nM
  cell viability: 113%
Vero E6 [11]; 10000 nM
  cell viability: 55.6%
Caco-2 [12]; 1 nM
  cell viability: 95.1%
Caco-2 [12]; 10 nM
  cell viability: 93.2%
Caco-2 [12]; 100 nM
  cell viability: 96.1%
Caco-2 [12]; 1000 nM
  cell viability: 99.1%
Caco-2 [12]; 10000 nM
  cell viability: 47.9%
A549-ACE2; 0.3 µM, 24 h
  drug-induced phospholipidosis: -0.66%
A549-ACE2; 0.3 µM, 48 h
  drug-induced phospholipidosis: 0.68%
A549-ACE2; 0.3 µM, 72 h
  drug-induced phospholipidosis: 3.23%
A549-ACE2; 0.833333 µM, 24 h
  drug-induced phospholipidosis: -4.32%
A549-ACE2; 0.833333 µM, 48 h
  drug-induced phospholipidosis: -2.57%
A549-ACE2; 0.833333 µM, 72 h
  drug-induced phospholipidosis: -1.46%
A549-ACE2; 3.33333 µM, 24 h
  drug-induced phospholipidosis: -10.5%
A549-ACE2; 3.33333 µM, 48 h
  drug-induced phospholipidosis: -3.57%
A549-ACE2; 3.33333 µM, 72 h
  drug-induced phospholipidosis: -1.25%
A549-ACE2; 6.66667 µM, 24 h
  drug-induced phospholipidosis: -0.85%
A549-ACE2; 6.66667 µM, 48 h
  drug-induced phospholipidosis: 0.31%
A549-ACE2; 6.66667 µM, 72 h
  drug-induced phospholipidosis: -4.18%
A549-ACE2; 10 µM, 24 h
  drug-induced phospholipidosis: -20.6%
A549-ACE2; 30 µM, 24 h
  drug-induced phospholipidosis: -18.5%
Calu-3 [13]
  relative viability EC50: > 10 µM
U2OS [14]
  relative viability EC50: 3.88 µM
HepG2 [15]
  relative viability EC50: 1.64 µM
Caco-2 [16]
  relative viability EC50: 3.04 µM
[17]; 0.1 µM
  cell count: 97%
[17]; 0.3 µM
  cell count: 101%
[17]; 1 µM
  cell count: 92%
[17]; 3 µM
  cell count: 93%

## [Cl][Ru-]([Cl])([Cl])[Cl].[Na+].c1ccc2[nH]ncc2c1.c1ccc2[nH]ncc2c1 [NKP-1339]
[1]; 0.3 µM
  morphology score: 0.32
[1]; 3 µM
  morphology score: 0.06
[1]; 10 µM
  morphology score: 0.14
[1]; 30 µM
  morphology score: 0.16
Calu-3 [2]
  drug sensitivity score: 0
U2OS [3]
  drug sensitivity score: 0
Vero E6 [5]
  drug sensitivity score: 0
Caco-2 [6]
  drug sensitivity score: 0.5
[7]; 0.3 µM
  SARS-CoV-2 infection rate: 95%
[7]; 3 µM
  SARS-CoV-2 infection rate: 99%
[7]; 10 µM
  SARS-CoV-2 infection rate: 97%
[7]; 30 µM
  SARS-CoV-2 infection rate: 91%
Calu-3 [8]; 1 nM
  cell viability: 96.2%
Calu-3 [8]; 10 nM
  cell viability: 91.9%
Calu-3 [8]; 100 nM
  cell viability: 93.2%
Calu-3 [8]; 1000 nM
  cell viability: 111%
Calu-3 [8]; 10000 nM
  cell viability: 96.1%
U2OS [9]; 1 nM
  cell viability: 94.2%
U2OS [9]; 10 nM
  cell viability: 95.9%
U2OS [9]; 100 nM
  cell viability: 100%
U2OS [9]; 1000 nM
  cell viability: 98.4%
U2OS [9]; 10000 nM
  cell viability: 99.5%
Vero E6 [11]; 1 nM
  cell viability: 95.7%
Vero E6 [11]; 10 nM
  cell viability: 99.2%
Vero E6 [11]; 100 nM
  cell viability: 98.9%
Vero E6 [11]; 1000 nM
  cell viability: 104%
Vero E6 [11]; 10000 nM
  cell viability: 103%
Caco-2 [12]; 1 nM
  cell viability: 98.5%
Caco-2 [12]; 10 nM
  cell viability: 96.6%
Caco-2 [12]; 100 nM
  cell viability: 94.3%
Caco-2 [12]; 1000 nM
  cell viability: 89.9%
Caco-2 [12]; 10000 nM
  cell viability: 85.2%
A549-ACE2; 0.3 µM, 24 h
  drug-induced phospholipidosis: -0.57%
A549-ACE2; 0.3 µM, 48 h
  drug-induced phospholipidosis: 0.31%
A549-ACE2; 0.3 µM, 72 h
  drug-induced phospholipidosis: 0.516%
A549-ACE2; 0.833333 µM, 24 h
  drug-induced phospholipidosis: 0.18%
A549-ACE2; 0.833333 µM, 48 h
  drug-induced phospholipidosis: 0.08%
A549-ACE2; 0.833333 µM, 72 h
  drug-induced phospholipidosis: -1.21%
A549-ACE2; 3.33333 µM, 24 h
  drug-induced phospholipidosis: -2.08%
A549-ACE2; 3.33333 µM, 48 h
  drug-induced phospholipidosis: -0.84%
A549-ACE2; 3.33333 µM, 72 h
  drug-induced phospholipidosis: -0.615%
A549-ACE2; 6.66667 µM, 24 h
  drug-induced phospholipidosis: -1.49%
A549-ACE2; 6.66667 µM, 48 h
  drug-induced phospholipidosis: -0.18%
A549-ACE2; 6.66667 µM, 72 h
  drug-induced phospholipidosis: -0.927%
A549-ACE2; 10 µM, 24 h
  drug-induced phospholipidosis: -1.44%
A549-ACE2; 10 µM, 48 h
  drug-induced phospholipidosis: -0.5%
A549-ACE2; 10 µM, 72 h
  drug-induced phospholipidosis: 0.0701%
A549-ACE2; 30 µM, 24 h
  drug-induced phospholipidosis: 2.85%
A549-ACE2; 30 µM, 48 h
  drug-induced phospholipidosis: 1.39%
A549-ACE2; 30 µM, 72 h
  drug-induced phospholipidosis: 3.63%
Calu-3 [13]
  relative viability EC50: > 10 µM
U2OS [14]
  relative viability EC50: > 10 µM
Vero E6 [18]
  relative viability EC50: > 10 µM
Caco-2 [16]
  relative viability EC50: > 10 µM
[17]; 0.3 µM
  cell count: 98%
[17]; 3 µM
  cell count: 103%
[17]; 10 µM
  cell count: 100%
[17]; 30 µM
  cell count: 105%
